25 compounds from ChEMBL document CHEMBL1142773, “1-(4-Amino-phenyl)-pyrrolidin-3-yl-amine and 6-(3-amino-pyrrolidin-1-yl)-pyridin-3-yl-amine derivatives as melanin-concentrating hormone receptor-1 antagonists” (Bioorg Med Chem Lett, 2005) can be followed below.

The target in experiment [1] is T1, Melanin-concentrating hormone receptor 1 (Homo sapiens, UniProt Q99705). Briefly: Binding affinity towards human MCH-R1 evaluated by its ability to displace radioligand [125I]Tyr13]-MCH.
The target in experiment [2] is T1, Melanin-concentrating hormone receptor 1. As to the kind of experiment: Inhibitory concentration against human MCH-R1-stimulated [Ca2+] influx.

T1 sequence (Q99705 whole entry): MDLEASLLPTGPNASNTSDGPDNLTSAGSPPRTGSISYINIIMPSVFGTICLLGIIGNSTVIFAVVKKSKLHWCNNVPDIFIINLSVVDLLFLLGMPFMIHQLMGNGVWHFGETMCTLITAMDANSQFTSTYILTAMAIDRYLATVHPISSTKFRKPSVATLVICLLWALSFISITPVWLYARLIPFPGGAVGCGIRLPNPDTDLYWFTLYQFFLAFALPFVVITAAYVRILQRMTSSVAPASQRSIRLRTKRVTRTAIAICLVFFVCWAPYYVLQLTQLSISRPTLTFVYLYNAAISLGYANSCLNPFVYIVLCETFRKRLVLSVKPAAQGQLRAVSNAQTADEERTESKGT

In experiment [1], `CCN1CCN(c2ccc(C(=O)Nc3ccc(N4CCC(N(C)C)C4)cc3)cn2)CC1` (stereo unspecified) displayed a Ki above 10000 nM.
The same measure, in the same setting: next, `CN(C)C1CCN(c2ccc(NC(=O)c3ccc(-c4cccs4)cc3)cc2)C1` (stereo unspecified): 34 nM; `CC(=O)N(C)C1CCN(c2ccc(NC(=O)c3ccc(-c4ccccc4)cc3)cc2)C1` (stereo unspecified): 3000 nM.
Consider `CN(C)C1CCN(c2ccc(NC(=O)c3ccc(N4CCCCC4)nc3)cc2)C1` (stereo unspecified), for which, in experiment [1], the affinity corresponds to a Ki of 2400 nM.
In the case of `CN(C)C1CCN(c2ccc(NC(=O)CCC(=O)c3ccc(Cl)cc3)cc2)C1` (stereo unspecified), in experiment [1], the affinity, expressed as Ki, was 13 nM.
The compound `CN(C)C1CCN(c2ccc(NC(=O)CCCC(=O)c3ccccc3)cc2)C1` (stereo unspecified) came in with a Ki in experiment [1] of 250 nM.
The same measure, in the same setting: next, `CN(C)C1CCN(c2ccc(NC(=O)c3ccc(-n4ccnc4)cc3)cc2)C1` (stereo unspecified): above 10000 nM; `CN(C)C1CCN(c2ccc(NC(=O)c3ccc(-c4cnco4)cc3)cc2)C1` (stereo unspecified): above 10000 nM.
In experiment [1], `CN(C)C1CCN(c2ccc(NC(=O)Cc3ccc(-c4ccccc4)cc3)cc2)C1` (stereo unspecified) came in with a Ki of 4300 nM.
Compound `CN(C)C1CCN(c2ccc(NC(=O)c3ccc(-c4ccccc4)cc3)cc2)C1` (stereo unspecified) gave a Ki in experiment [1] of 5.2 nM.
Consider `CN(C)C1CCN(c2ccc(NC(=O)C3CCC(c4ccccc4)CC3)cc2)C1` (stereo unspecified), for which, in experiment [1], the Ki amounted to 14 nM.
The same measure, in the same setting: as for `CN(CCCc1ccccc1)C1CCN(c2ccc(NC(=O)c3ccc(-c4ccccc4)cc3)cc2)C1` (stereo unspecified), the figure is 8.6 nM; as for `CN(CC1CC1)C1CCN(c2ccc(NC(=O)c3ccc(-c4ccccc4)cc3)cc2)C1` (stereo unspecified), 5.5 nM.
On the same count and under the same terms, next, `CN(C)C1CCN(c2ccc(NC(=O)c3ccc4c(c3)C(=O)c3ccccc3-4)cc2)C1` (stereo unspecified): above 10000 nM; `CN(Cc1ccccc1)C1CCN(c2ccc(NC(=O)c3ccc(-c4ccccc4)cc3)cc2)C1` (stereo unspecified): 31 nM.
Regarding `CNC1CCN(c2ccc(NC(=O)c3ccc(-c4ccccc4)cc3)cc2)C1` (stereo unspecified), the IC50 in experiment [2] was 166 nM. In experiment [1], this compound had a Ki of 3.1 nM.
In turn, `CN(C)C1CCN(c2ccc(NC(=O)NCCCc3ccccc3)cc2)C1` (stereo unspecified) showed a Ki in experiment [1] of 43 nM.
Same read-out and setting: next, `COc1ccc(-c2ccc(C(=O)Nc3ccc(N4CCC(N(C)C)C4)cc3)cn2)cc1` (stereo unspecified): 16 nM.
Consider `CN(Cc1ccccn1)C1CCN(c2ccc(NC(=O)c3ccc(-c4ccccc4)cc3)cc2)C1` (stereo unspecified), for which affinity in experiment [1] was put at a Ki of 130 nM.
In experiment [1], `CN(C(=O)OC(C)(C)C)C1CCN(c2ccc(NC(=O)c3ccc(-c4ccccc4)cc3)cc2)C1` (stereo unspecified) came in with a Ki above 10000 nM.
Same read-out and setting: next, `COc1ccc(CCCNC(=O)Nc2ccc(N3CCC(N(C)C)C3)cc2)cc1` (stereo unspecified): 52 nM; `CN(C)C1CCN(c2ccc(NC(=O)c3ccc(Oc4ccccc4)cc3)cc2)C1` (stereo unspecified): above 10000 nM.
The compound `CN(C)C1CCN(c2ccc(NC(=O)c3ccc(-c4ccccc4)nc3)cc2)C1` (stereo unspecified) returned a Ki in experiment [1] of 110 nM.
Same read-out and setting: next, `CCN(C)C1CCN(c2ccc(NC(=O)c3ccc(-c4ccccc4)cc3)cc2)C1` (stereo unspecified): 5.9 nM.
`CN(C)C1CCN(c2ccc(NC(=O)C3CCC(c4ccc(Cl)cc4)CC3)cc2)C1` (stereo unspecified): in experiment [1], the Ki stood at 12 nM.
